Test system: HeLa cells
Assay: Protein delivery to HeLa cells, visualized by fluorescence confocal microscopy
Assay type: cell-based
Details: technique #2, FIG. 2B
Method: HeLa cells were maintained in DMEM containing 10% fetal bovine serum. For polypeptide delivery, cells were plated in 6-well plates containing glass cover slips at a density of 50,000-100,000 cells per well and grown for 24-48 hours before incubation with polypeptide formulations.
Two different techniques were used for contacting polypeptide formulations with cells. In both techniques, cells were grown to 30-70% confluency and washed once with 2 ml 37° C. PBS prior to addition of polypeptide formulations.
Technique #1: Peptide formulations were diluted by addition of 150 μl 37° C. PBS (180-200 μl total volume). Formulations were than added to cells on cover slips. Following a 5 min incubation at room temperature (RT) 0.8 ml 37° C. DMEM was added to each well and cells were again incubated for 5 min at RT. Media was then aspirated off cells and 2.0 ml DMEM containing 10% bovine serum was added. […]
Visualization of polypeptide delivery to cells: In order to visually analyze polypeptide delivery, cells were washed 3× with PBS, fixed for 30 min at 4° C. in PBS containing 4% formaldehyde and washed 3× with PBS. Cover slips were then mounted onto slides for fluorescence microscopy using a Zeiss LSM510 laser confocal microscope. Rhodamine was detected by exciting with a HeNe laser at 543 nm and detecting with a 560 nm long pass filter. […]

modification #26: Rhodamine-labeled Bovine Serum Albumin modified with chlorodimethyloctadecylsilane, dried, hydrated with PBS
uptake of modified protein by cells: uptake of BSA

Source: patent publication US7476401B2, “Protein and peptide delivery to mammalian cells in vitro” (Mirus Bio LLC, priority 2003, dated 2009)
